Measurements reported in ChEMBL document CHEMBL4823262, “Discovery of a Vitamin D Receptor-Silent Vitamin D Derivative That Impairs Sterol Regulatory Element-Binding Protein In Vivo” (J Med Chem, 2021).
One block for each molecule: values may come before it. Calls of active or inactive are those of the source. The rule behind the calls is not given here.

How the values were obtained:
CHO = test: Cytotoxicity against Chinese hamster CHO cells by beta-galactosidase reporter gene assay; assay type: cell-based, Cricetulus griseus
Vitamin D3 receptor = target: T1, Vitamin D3 receptor (Homo sapiens, UniProt P11473); test: Agonist activity at VDR (unknown origin) expressed in CHO-K1 cells at 5 uM by luciferase reporter assay; assay type: cell-based; conditions: cho-k1, 5 µM
T1 sequence (P11473 whole entry): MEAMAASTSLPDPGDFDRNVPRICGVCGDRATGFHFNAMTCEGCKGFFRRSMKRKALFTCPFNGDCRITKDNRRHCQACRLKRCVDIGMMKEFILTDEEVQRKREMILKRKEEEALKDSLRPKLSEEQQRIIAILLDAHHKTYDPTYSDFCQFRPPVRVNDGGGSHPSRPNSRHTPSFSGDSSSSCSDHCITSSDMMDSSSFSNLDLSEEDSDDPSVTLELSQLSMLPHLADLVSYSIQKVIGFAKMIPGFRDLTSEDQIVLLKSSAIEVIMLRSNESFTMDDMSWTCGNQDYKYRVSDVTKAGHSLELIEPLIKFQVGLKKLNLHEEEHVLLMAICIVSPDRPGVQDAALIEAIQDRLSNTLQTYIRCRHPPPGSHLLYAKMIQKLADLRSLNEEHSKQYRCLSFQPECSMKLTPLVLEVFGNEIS

Mus musculus [1] = species: Mus musculus; conditions: Liver, dose 10.0 mg/kg, time 4.0 day
[2] = Effect on serum calcium level in mouse assessed as increase in calcium level at 10 mg/kg, ip administered once daily for 4 days […]; assay type: ADME, organism-based; conditions: in vivo, 96 h, time 4 day
Mus musculus [3] = species: Mus musculus; conditions: Liver, dose 10.0 mg/kg, time 4.0 day; remark: listed apart in the source
[4] = target: T2, Sterol regulatory element-binding protein cleavage-activating protein (Homo sapiens) (UniProt Q12770); test: Inhibition of FLAG-tagged SCAP (unknown origin) expressed in CHO-K1 cells assessed as reduction in SCAP protein level at 5 uM after 24 hrs by Western blotting analysis; assay type: cell-based
T2 sequence (whole entry): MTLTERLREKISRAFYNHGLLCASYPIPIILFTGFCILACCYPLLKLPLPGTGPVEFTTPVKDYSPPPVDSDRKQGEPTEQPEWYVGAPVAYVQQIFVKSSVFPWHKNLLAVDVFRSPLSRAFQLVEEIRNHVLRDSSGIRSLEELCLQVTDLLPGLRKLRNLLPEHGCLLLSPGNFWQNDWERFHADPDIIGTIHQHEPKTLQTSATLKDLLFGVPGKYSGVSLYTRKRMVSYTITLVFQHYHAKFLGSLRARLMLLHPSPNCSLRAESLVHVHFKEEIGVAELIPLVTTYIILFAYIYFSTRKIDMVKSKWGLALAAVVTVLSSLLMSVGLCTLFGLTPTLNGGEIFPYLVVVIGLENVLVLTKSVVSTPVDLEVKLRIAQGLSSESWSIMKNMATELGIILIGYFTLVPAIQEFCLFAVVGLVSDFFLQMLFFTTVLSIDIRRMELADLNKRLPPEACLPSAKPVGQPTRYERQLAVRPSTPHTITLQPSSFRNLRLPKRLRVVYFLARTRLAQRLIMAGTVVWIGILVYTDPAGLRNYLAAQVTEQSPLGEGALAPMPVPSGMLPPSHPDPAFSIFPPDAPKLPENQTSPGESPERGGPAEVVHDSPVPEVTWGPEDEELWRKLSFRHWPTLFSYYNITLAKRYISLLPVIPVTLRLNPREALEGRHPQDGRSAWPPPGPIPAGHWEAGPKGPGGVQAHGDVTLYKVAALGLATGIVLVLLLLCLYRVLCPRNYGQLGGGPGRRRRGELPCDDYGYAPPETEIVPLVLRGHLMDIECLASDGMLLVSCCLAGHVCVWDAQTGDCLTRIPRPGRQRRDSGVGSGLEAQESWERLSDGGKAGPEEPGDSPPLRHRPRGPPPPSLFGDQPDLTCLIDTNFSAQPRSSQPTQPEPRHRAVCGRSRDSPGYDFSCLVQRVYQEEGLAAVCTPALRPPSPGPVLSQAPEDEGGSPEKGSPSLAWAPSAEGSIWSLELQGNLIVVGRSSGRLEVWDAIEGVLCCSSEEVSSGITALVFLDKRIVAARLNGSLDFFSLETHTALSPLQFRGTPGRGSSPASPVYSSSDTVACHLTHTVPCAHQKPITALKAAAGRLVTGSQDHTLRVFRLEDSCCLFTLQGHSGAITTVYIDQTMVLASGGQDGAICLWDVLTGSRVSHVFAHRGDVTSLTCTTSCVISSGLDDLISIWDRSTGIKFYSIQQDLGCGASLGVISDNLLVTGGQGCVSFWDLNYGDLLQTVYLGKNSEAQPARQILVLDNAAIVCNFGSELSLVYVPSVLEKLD

[5] = Toxicity in ob/ob mouse assessed as sick at 10 mg/kg, ip administered 5 times per week for 4 weeks; assay type: organism-based; conditions: in vivo, 672 h
[6] = target: T3, Sterol regulatory element-binding protein 1 (Homo sapiens, UniProt P36956); test: Inhibition of SREBP (unknown origin) expressed in CHO-K1 cells by luciferase reporter assay; assay type: cell-based
T3 sequence (P36956 whole entry): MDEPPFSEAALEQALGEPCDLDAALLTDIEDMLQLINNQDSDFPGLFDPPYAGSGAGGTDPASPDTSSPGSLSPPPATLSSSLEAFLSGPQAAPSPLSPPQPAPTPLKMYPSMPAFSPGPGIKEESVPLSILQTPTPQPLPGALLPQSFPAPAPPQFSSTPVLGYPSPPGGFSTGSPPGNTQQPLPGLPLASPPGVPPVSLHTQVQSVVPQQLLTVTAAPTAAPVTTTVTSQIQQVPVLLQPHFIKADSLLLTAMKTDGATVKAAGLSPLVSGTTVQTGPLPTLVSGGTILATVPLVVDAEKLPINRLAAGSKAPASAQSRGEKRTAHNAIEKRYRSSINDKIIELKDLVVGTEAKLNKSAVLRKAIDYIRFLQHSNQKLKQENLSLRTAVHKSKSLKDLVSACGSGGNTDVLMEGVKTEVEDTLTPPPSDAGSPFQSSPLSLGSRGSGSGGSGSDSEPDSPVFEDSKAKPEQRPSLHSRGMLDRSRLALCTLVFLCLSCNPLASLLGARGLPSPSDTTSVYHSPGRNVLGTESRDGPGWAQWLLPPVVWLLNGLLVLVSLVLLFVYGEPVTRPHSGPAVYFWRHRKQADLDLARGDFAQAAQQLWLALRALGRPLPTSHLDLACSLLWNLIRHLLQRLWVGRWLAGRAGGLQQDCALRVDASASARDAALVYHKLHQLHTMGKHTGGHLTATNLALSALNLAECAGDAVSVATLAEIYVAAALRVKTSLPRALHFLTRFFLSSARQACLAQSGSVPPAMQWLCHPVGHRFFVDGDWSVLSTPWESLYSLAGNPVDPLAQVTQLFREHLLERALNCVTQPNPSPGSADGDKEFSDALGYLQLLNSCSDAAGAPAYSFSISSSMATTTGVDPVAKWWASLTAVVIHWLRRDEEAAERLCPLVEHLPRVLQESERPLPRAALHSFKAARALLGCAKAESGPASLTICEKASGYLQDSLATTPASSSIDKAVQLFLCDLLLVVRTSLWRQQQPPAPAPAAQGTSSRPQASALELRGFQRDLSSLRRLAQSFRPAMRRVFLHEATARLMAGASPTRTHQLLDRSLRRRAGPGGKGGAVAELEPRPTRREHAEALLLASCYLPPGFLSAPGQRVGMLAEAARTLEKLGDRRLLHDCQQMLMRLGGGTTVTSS

[7] = Toxicity in ob/ob mouse assessed as increase in weight at 10 mg/kg, ip administered 5 times per week for 4 weeks; assay type: organism-based; conditions: in vivo, 672 h

- Activity (Vitamin D3 receptor): Not Active
Structure (SMILES): C[C@H](CCC(F)(F)C(C)(C)O)[C@H]1CC[C@H]2/C(=C/Cn3nnc(-c4ccc(F)cc4)n3)CCC[C@]12C
- Activity (CHO): Non-Toxic

- Activity (Vitamin D3 receptor): Active
Structure (SMILES): C[C@H](CCCC(C)(C)O)[C@H]1CC[C@H]2/C(=C/Cn3cc(-c4ccccn4)nn3)CCC[C@]12C

- Activity (Vitamin D3 receptor): Not Active
Structure (SMILES): C[C@H](CCCC(O)(C(F)(F)F)C(F)(F)F)[C@H]1CC[C@H]2/C(=C/Cn3cc(-c4ccc(F)cc4)nn3)CCC[C@]12C
- inhibition (Mus musculus [1]): Active
- Activity [2]: Toxic
- inhibition (Mus musculus [3]): Active

Structure (SMILES): C[C@H](CCCC(O)(C(F)(F)F)C(F)(F)F)[C@H]1CC[C@H]2/C(=C/Cn3cc(-c4ccccc4)nn3)CCC[C@]12C
- inhibition (Mus musculus [1]): Active
- Activity [2]: Toxic
- inhibition (Mus musculus [3]): Active

- inhibition [4]: Active
- IC50 [6]: 1180 nM
Structure (SMILES): C=C1CC[C@H](O)C/C1=C/C=C1\CCC[C@]2(C)[C@@H]([C@H](C)CCCC(C)(C)O)CC[C@@H]12 [CALCIFEDIOL ANHYDROUS]
- Activity [2]: Toxic
- Activity [5]: Toxic

- Activity (Vitamin D3 receptor): Active
Structure (SMILES): C[C@H](CCCC(C)(C)O)[C@H]1CC[C@H]2/C(=C/Cn3cnnn3)CCC[C@]12C

- Activity (Vitamin D3 receptor): Active
Structure (SMILES): C[C@H](CCCC(C)(C)O)[C@H]1CC[C@H]2/C(=C/Cn3cc(CCCCO)nn3)CCC[C@]12C

Structure (SMILES): C[C@H](CCC(F)(F)C(C)(C)O)[C@H]1CC[C@H]2/C(=C/Cn3nnnc3-c3ccccc3)CCC[C@]12C
- Activity (CHO): Non-Toxic
- Activity [5]: Non-Toxic
- Activity [7]: Toxic

- Activity (Vitamin D3 receptor): Active
Structure (SMILES): C[C@H](CCCC(C)(C)O)[C@H]1CC[C@H]2/C(=C/Cn3ncnn3)CCC[C@]12C

- Activity (Vitamin D3 receptor): Not Active
Structure (SMILES): C[C@H](CCC(F)(F)C(C)(C)O)[C@H]1CC[C@H]2/C(=C/Cn3cc(-c4ccc(F)cc4)nn3)CCC[C@]12C

- Activity (Vitamin D3 receptor): Not Active
Structure (SMILES): C[C@H](CCC(F)(F)C(C)(C)O)[C@H]1CC[C@H]2/C(=C/Cn3nnnc3-c3ccc(F)cc3)CCC[C@]12C
- Activity (CHO): Non-Toxic

- IC50 [6]: 700 nM
Structure (SMILES): CCCc1cc(-c2nc(-c3ccc(NS(C)(=O)=O)cc3)cs2)ccn1
